Source: patent US5428168A, “Lactol PAF antagonists” (British Biotech Pharmaceuticals Limited, priority 1990, dated 1995)

What was measured:
PAF receptor = target: T1, PAF receptor (Homo sapiens, UniProt P25105); test: Inhibition of [3H]-PAF receptor binding to human platelet plasma membrane (isotopic labelling and filtration); conditions: human platelet membranes, 0.5 nM [3H]-PAF, 0° C., 1 hour
T1 construct: Platelet concentrates were obtained from a hospital blood bank; from tissue; host or cells: human platelets (plasma membrane fraction of lysed platelets from hospital blood bank concentrates)
T1 sequence (P25105 whole entry): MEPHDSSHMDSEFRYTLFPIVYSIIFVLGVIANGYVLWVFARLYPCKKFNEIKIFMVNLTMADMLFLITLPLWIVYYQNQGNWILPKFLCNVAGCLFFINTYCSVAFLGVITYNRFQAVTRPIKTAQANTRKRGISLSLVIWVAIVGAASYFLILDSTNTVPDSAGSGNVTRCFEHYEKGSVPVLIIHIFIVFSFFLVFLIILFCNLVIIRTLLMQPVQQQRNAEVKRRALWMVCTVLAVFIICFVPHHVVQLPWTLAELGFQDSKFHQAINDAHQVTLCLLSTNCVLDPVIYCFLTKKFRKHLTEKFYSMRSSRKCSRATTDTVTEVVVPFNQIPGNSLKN
Method: Compounds of general formula I inhibit PAF-induced functions in both the cellular and tissue levels by changing the PAF binding to its specific receptor site. The ability of compounds of general formula I to inhibit the binding of PAF to its specific receptor binding site on human platelet plasma membranes was measured according to the pharmacological example. […] Platelet concentrates were obtained from a hospital blood bank. These platelet concentrates (500-2500 ml.) were centrifuged at 800 rpm for 10 minutes in a SORVALL RC3B centrifuge to remove the red blood cells present. (The word SORVALL is a trade mark.) The supernatant was subsequently centrifuged at 3,000 rpm in a SORVALL RC3B centrifuge to pellet the platelets present. The platelet rich pellets were resuspended in a minimum volume of buffer (150 mM NaCl, 10 mM Tris, 2 mM EDTA, pH 7.5) and layered onto Ficoll-Paque gradients, 9 ml platelet concentrate to 2 ml Ficoll, and centrifuged at 1,900 rpm for 15 minutes in a SORVALL RT6000 centrifuge. This step removes the residual red blood cells and other nonspecific material such as lymphocytes from the preparation. The platelets which form a band between the plasma and the Ficoll were removed, resuspended in the above buffer and centrifuged at 3,000 rpm for 10 minutes in a SORVALL RT6000 centrifuge. The pelleted platelets were resuspended in buffer (10 mM Tris, 5mM MgCl2, 2 mM EDTA, pH 7.0), snap freezed in liquid N2 and allowed to thaw slowly at room temperature in order to lyse the platelets. The latter step was repeated at least 3 times to ensure proper lysis. The lysed platelets were centrifuged at 3,000 rpm for 10 minutes in a SORVALL RT6000 centrifuge and resuspended in buffer. The latter step was repeated twice in order to remove any cytoplasmic proteins which may hydrolyse the […]. The prepared platelet membranes may be stored at -70° C. After thawing the prepared membranes were centrifuged in a SORVALL RT6000 at 3,000 rpm for 10 minutes and resuspended in assay buffer. The assay was conducted by preparing a series of Tris-buffered solutions of the selected antagonist of predetermined concentrations. […] Incubation was initiated by the addition of 100 μg of the isolated membrane fraction to each of the above solutions at 0° C. […] (The word WHATMAN is a trade mark.) The residue in each case was rapidly washed 4 times with 5 ml cold (4° C.) Tris-buffer solution. […] % Inhibition=[(TB-TBA)/SB]x100 where the specific binding SB=TB-NSB […]

[1] = system: PAF-induced hypotension in the rat; test: Reversal of PAF-induced hypotension in anaesthetised rats; type: in vivo, rat (male Sprague-Dawley); conditions: for inhibition of PAF-induced hypotension: @ 1 mg/kg i.v.; for ED50: iv, i.v. bolus, PAF 100 ng/kg/min i.v., straight line interpolation, read-out: ED50 (dose to cause 50% reversal of the hypotensive PAF response)
Method: Male Sprague-Dawley rats (300-400 g) were anaesthetised with a mixture of sodium pentobarbitone, 22.5 mg·kg^-1 and thiopental 62.5 mg·kg^-1. Through a midline incision in the neck, the trachea was cannulated and the animals breathed spontaneously. A carotid artery was cannulated for the measurement of blood pressure and this signal was used to trigger a rate meter to measure heart rate. Both jugular veins were cannulated: one for the infusion of PAF and the other for the bolus administration of test compounds.
PAF, 100 ng·kg^-1 .min^-1 was infused i.v. until a sustained fall in mean blood pressure of 50 mmHg was achieved. […] The peak of this reversal was measured and the dose to cause a 50% reversal of the hypotensive PAF response (ED50) calculated by straight line interpolation and the results are presented in Table 2.

Which IC50 (PAF receptor) does the source give for `COc1ccc([C@H]2CC[C@H](OCCCc3ccc[n+](C)c3)O2)cc1OC` (relative stereo) [Comparative Example A, trans-O-(3-(3-N-methylpyridyl)propyl)-5-(3,4-dimethoxyphenyl)-gamma-butyrolactol ether iodide, reference compound] here?
Its IC50 is 3000 nM.

And the “inhibition of PAF-induced hypotension” value [1]?
Its value is 31%.

And the ED50 [1]?
The ED50 was > 1000 µg/kg.

`COc1ccc([C@H]2CC[C@@H](OCCCc3ccc[n+](C)c3)O2)cc1OC` (relative stereo) [Comparative Example B, cis-O-(3-(3-N-methylpyridyl)propyl)-5-(3,4-dimethoxyphenyl)-gamma-butyrolactol ether iodide, reference compound] was tested. Which IC50 (PAF receptor) did it give?
Its IC50 is 1000 nM.

And the “inhibition of PAF-induced hypotension” value [1]?
Its value is 10%.

What about the ED50 [1] of the same compound?
Its ED50 is > 1000 µg/kg.

What does the source list for `COc1ccc([C@H]2CC[C@H](OCCCc3cccnc3)O2)cc1OC` (relative stereo) [Example 1A, trans-O-(3-(3-pyridyl)propyl)-5-(3,4-dimethoxyphenyl)-gamma-butyrolactol ether]?
IC50 (PAF receptor): 4000 nM; ED50 [1]: 27 µg/kg

`COc1ccc([C@H]2CC[C@H](OCCCCCc3cccnc3)O2)cc1OC` (relative stereo) [Example 5A, O-(5-(3-Pyridyl)pentyl)-5-(3,4-dimethoxyphenyl)-gamma-butyrolactol ether] was tested. Which IC50 (PAF receptor) did it give?
Its IC50 is 12000 nM.

Which IC50 (PAF receptor) does the source give for `COc1ccc([C@H]2CC[C@@H](OCCCCCc3cccnc3)O2)cc1OC` (relative stereo) [Example 5B, O-(5-(3-Pyridyl)pentyl)-5-(3,4-dimethoxyphenyl)-gamma-butyrolactol ether] here?
Its IC50 is 1500 nM.

For `COc1ccc([C@H]2CC[C@H](OCCCCC#Cc3cccnc3)O2)cc1OC` (relative stereo) [Example 6A, O-(6-(3-Pyridyl)hex-5-ynyl)-5-(3,4-dimethoxyphenyl)-gamma-butyrolactol ether], which IC50 (PAF receptor) is on record?
The IC50 was 3000 nM.

`COc1ccc([C@H]2CC[C@H](OCCCC/C=C\c3cccnc3)O2)cc1OC` (relative stereo) [Example 7A, Z-O-(6-(3-Pyridyl)hex-5-enyl)-5-(3,4-dimethoxyphenyl)-gamma-butyrolactol ether] was tested. Which IC50 (PAF receptor) did it give?
The IC50 was 12000 nM.

How did the IC50 (PAF receptor) turn out when `COc1ccc([C@H]2CC[C@H](OC/C=C/c3cccnc3)O2)cc1OC` (relative stereo) [Example 10A, E-O-(3-(3-Pyridyl)prop-2-enyl)-5-(3,4-dimethoxyphenyl)-gamma-butyrolactol ether] was run?
The IC50 was 1000 nM.

`COc1ccc([C@H]2CC[C@@H](OC/C=C/c3cccnc3)O2)cc1OC` (relative stereo) [Example 10B, E-O-(3-(3-Pyridyl)prop-2-enyl)-5-(3,4-dimethoxyphenyl)-gamma-butyrolactol ether] was tested. Which IC50 (PAF receptor) did it give?
Its IC50 is 150 nM.

How did the IC50 (PAF receptor) turn out when `COc1ccc([C@H]2CC[C@@H](OCCCn3c(C)nc4cnccc43)O2)cc1OC` (relative stereo) [Example 30A, O-(3-(1H-2-Methylimidazo[4,5-c]pyridyl)propyl)-5-(3,4-dimethoxyphenyl)-gamma-butyrolactol ether] was run?
The IC50 was 25 nM.

For `COc1ccc(C2CCC(OCCC#Cc3cccnc3)O2)cc1OC` (stereo not drawn) [Example 2, O-(4-(3-Pyridyl)but-3-ynyl)-5-(3,4-dimethoxyphenyl)-gamma-butyrolactol ether], which IC50 (PAF receptor) is on record?
The IC50 was 4000 nM.

How did the IC50 (PAF receptor) turn out when `COc1ccc(C2CCC(OCCCCc3cccnc3)O2)cc1OC` (stereo not drawn) [Example 3, O-(4-(3-Pyridyl)butyl)-5-(3,4-dimethoxyphenyl)-gamma-butyrolactol ether] was run?
The IC50 was 6000 nM.

Which IC50 (PAF receptor) does the source give for `COc1ccc(C2CCC(OCCCC#Cc3cccnc3)O2)cc1OC` (stereo not drawn) [Example 4, O-(5-(3-Pyridyl)pent-4-ynyl)-5-(3,4-dimethoxyphenyl)-gamma-butyrolactol ether] here?
The IC50 was 5000 nM.

How did the IC50 (PAF receptor) turn out when `COc1ccc(C2CCC(OCCCC/C=C\c3cccnc3)O2)cc1OC` (stereo not drawn) [Example 7B, Z-O-(6-(3-Pyridyl)hex-5-enyl)-5-(3,4-dimethoxyphenyl)-gamma-butyrolactol ether] was run?
The IC50 was 2000 nM.

For `COc1ccc(C2CCC(OC(C)CCc3cccnc3)O2)cc1OC` (stereo not drawn) [Example 12, O-(1-Methyl-3-(3-pyridyl)propyl)-5-(3,4-dimethoxyphenyl)-gamma-butyrolactolether], which IC50 (PAF receptor) is on record?
The IC50 was 3000 nM.

For `COc1ccc(C2CCC(OCc3ccc(-n4c(C)nc5ccccc54)cc3)O2)cc1OC` (stereo not drawn) [Example 23, O-((4-(1H-2-Methylbenzimidazyl)phenyl)methyl)-5-(3,4-dimethoxyphenyl)-gamma-butyrolactol ether], which IC50 (PAF receptor) is on record?
Its IC50 is 900 nM.

Which IC50 (PAF receptor) does the source give for `COc1ccc(C2CCC(OCc3ccc(Cn4c(C)nc5ccccc54)cc3)O2)cc1OC` (stereo not drawn) [Example 24, O-((4-(1H-2-Methylbenzimidazylmethyl)phenyl)methyl)-5-(3,4-dimethoxyphenyl)-gamma-butyrolactol ether] here?
Its IC50 is 2000 nM.

How did the IC50 (PAF receptor) turn out when `COc1ccc(C2CCC(OCc3csc(-c4cccnc4)n3)O2)cc1OC` (stereo not drawn) [Example 27, O-((2-(3-Pyridyl)-4-thiazolyl)methyl)-5-(3,4-dimethoxyphenyl)-gamma-butyrolactol ether] was run?
The IC50 was 10000 nM.

What about the ED50 [1] of the same compound?
Its ED50 is 120 µg/kg.

Which IC50 (PAF receptor) does the source give for `COc1ccc(C2CCC(OCCCn3c(C)nnc3C)O2)cc1OC` (stereo not drawn) [Example 29, O-(3-(3,5-Dimethyl-1,2,4-triazol-4-yl)propyl)-5-(3,4-dimethoxyphenyl)-gamma-butyrolactol ether] here?
The IC50 was 250 nM.

For `COc1ccc(C2CCC(OCCCCn3c(C)nc4cnccc43)O2)cc1OC` (stereo not drawn) [Example 31, O-(4-(1H-2-Methylimidazo[4,5-c]pyridyl)butyl)-5-(3,4-dimethoxyphenyl)-gamma-butyrolactol ether], which ED50 [1] is on record?
Its ED50 is 3 µg/kg.

For `Cc1nc2cnccc2n1CCCOC1CCC(c2ccc(F)cc2)O1` (stereo not drawn) [Example 33, O-(3-(1H-2-Methylimidazo[4,5-c]pyridyl)propyl)-5-(4-fluorophenyl)-gamma-butyrolactol ether], which IC50 (PAF receptor) is on record?
The IC50 was 7 nM.

What about the ED50 [1] of the same compound?
Its ED50 is 1 µg/kg.

For `Cc1nc2cnccc2n1CCCOC1CCC(c2ccc(Br)cc2)O1` (stereo not drawn) [Example 34, O-(3-(1H-2-Methylimidazo[4,5-c]pyridyl)propyl)-5-(4-bromophenyl)-gamma-butyrolactol ether], which IC50 (PAF receptor) is on record?
The IC50 was 10 nM.

Which IC50 (PAF receptor) does the source give for `Cc1nc2cnccc2n1CCCOC1CCC(c2ccc(Cl)c(Cl)c2)O1` (stereo not drawn) [Example 35, O-(3-(1H-2-Methylimidazo[4,5-c]pyridyl)propyl)-5-(3,4-dichlorophenyl)-gamma-butyrolactol ether] here?
Its IC50 is 5 nM.

What about the ED50 [1] of the same compound?
The ED50 was 2 µg/kg.

How did the IC50 (PAF receptor) turn out when `COc1ccc(C2CCC(OCCCn3c(C)nc4cnccc43)O2)cc1Cl` (stereo not drawn) [Example 36, O-(3-(1H-2-Methylimidazo[4,5-c]pyridyl)propyl)-5-(3-chloro-4-methoxyphenyl)-gamma-butyrolactol ether] was run?
Its IC50 is 3 nM.

What about the ED50 [1] of the same compound?
The ED50 was 2 µg/kg.
